According to PMC12030059, “Mechanistic Advances in the Therapeutic Application of Bixin for Lung Inflammation In Vitro and In Vivo” (Pharmaceuticals, 2025):
In brackets after ≈: the same amount, converted by molar mass.

Assays:
HDAC6 = test: Western blotting, HDAC6 expression; format: cell-based; settings: RAW 264.7, increase by CSE 5%
Method: The RAW 264.7 macrophage cell lines were cultured in DMEM supplemented with 10% (v/v) FBS, pH 7.2, at 37 °C in a humidified atmosphere with 5% CO2. RAW 264.7 cells were plated in a 24-well plate (3.5 × 10^5 cells/well) in DMEM with 1% (v/v) FBS and left overnight to adhere. […] After incubation, the medium was removed, and a 100 μM solution of bixin or potassium bixinate (diluted in DMEM; bixin was first prepared as a stock solution in DMSO) was added for an additional 1 h.
Cells were lysed in RIPA buffer containing […]™ Protease Inhibitor and 1 mM sodium orthovanadate. Samples were then analyzed using the bicinchoninic acid (BCA) method (BCA Protein Assay Kit). […] For protein quantification, 10 μL of the sample was mixed with 100 μL of the working solution, and the same procedure was performed for each point on the standard curve in a 96-well plate. […] Absorbance was read at 565 nm using a Varioskan LUX spectrophotometer (ThermoFisher Scientific, Waltham, MA, USA).
Cell lysates (10–20 μg of protein) were separated by SDS-PAGE (sodium dodecyl sulfate polyacrylamide gel for electrophoresis) (8 or 12% polyacrylamide) and transferred (25 V, 1.0 A, 30 min—Trans-Blot Turbo Transfer System, Bio-Rad—São Paulo, Brazil) to a PVDF membrane. […] Densitometry was quantified using ImageJ software v. […] Results are expressed as densitometric values for each protein normalized to β-actin.

RAW 264.7 cells = test: ROS scavenger activity assay (NBT), LPS-induced; format: cell-based; settings: for ROS production induced by LPS: LPS 10 μg/mL, 12.5–200 μM, effect starting from 100 µM
Method: ROS levels were determined using the NBT method. RAW 264.7 cells were incubated for 1 h with 10 μg/mL LPS and different concentrations of bixin or potassium bixinate (0–200 μM) to evaluate their ability to intercept superoxide anions induced by LPS. After incubation, a 10% (w/v) NBT solution was added to each well and incubated for 1 h at 37 °C. Cellular membranes were permeabilized with 2 M KOH, and the resulting formazan was solubilized in DMSO. Optical density (OD) was measured at 630 nm using a Varioskan LUX spectrophotometer (ThermoFisher Scientific, Waltham, MA, USA).

Kinetic solubility assay = format: physicochemical; settings: aqueous buffer, kinetic from dmso stock, 37 °C
Method: These solutions were incubated in a shaking water bath at 37 °C for 4 and 24 h. Immediately after each incubation period, the samples were centrifuged at 21,000× g Universal Centrifuge 320R Hettich (Tuttlingen, Germany) at 22 °C. The supernatant was collected, filtered through a 0.44 μm Millipore filter (Sigma-Aldrich—Saint Louis, MO, USA) into a vial, and analyzed using a HPLC LC-20AD Shimadzu (Kyoto, Japan) coupled with a DAD detector set at 457 nm. The mobile phase consisted of acetonitrile and methanol (85:15 v/v) using a 100-5C18 Kromasil (Bohus, Sweden) analytical column (4.6 mm × 250 mm, 5 μm) as the stationary phase in isocratic mode at 22 °C with a flow rate of 1 mL/min. A calibration curve was prepared using bixin in acetonitrile at concentrations ranging from 0 to 200 μM and analyzed under the same HPLC conditions. LogS was calculated as the base-10 logarithm of the solubility (in μM) for each time point.

With COC(=O)/C=C/C(C)=C\C=C\C(C)=C\C=C\C=C(C)\C=C\C=C(C)\C=C\C(=O)O [HBx, (2E,4E,6E,8E,10E,12E,14E,16Z,18E)-20-methoxy-4,8,13,17-tetramethyl-20-oxoicosa-2,4,6,8,10,12,14,16,18-nonaenoic acid] the “HDAC6 expression (HDAC6/β-actin)” value (HDAC6) was “effective in reducing it”, the “ROS production induced by LPS” value (RAW 264.7 cells) was “dose-dependent reduction in ROS production” and the solubility at 4 h (Kinetic solubility assay; PBS buffer, pH 7.4, 4 h) was 64 µM (≈ 25.2 µg/mL). For the same molecule, the solubility at 24 h (Kinetic solubility assay; PBS buffer, pH 7.4, 24 h) was 43 µM (≈ 17 µg/mL), the solubility at 4 h (Kinetic solubility assay; buffered solution pH 2.0 (commercial), pH 2.0, 4 h) was < 1 µM and the solubility at 24 h (Kinetic solubility assay; buffered solution pH 2.0 (commercial), pH 2.0, 24 h) was < 1 µM. The solubility at 4 h (Kinetic solubility assay; potassium-phosphate-buffered saline solution (KPE) buffer, pH 6.6, 4 h) was 30 µM (≈ 11.8 µg/mL) and the solubility at 24 h (Kinetic solubility assay; potassium-phosphate-buffered saline solution (KPE) buffer, pH 6.6, 24 h) was 11 µM (≈ 4.34 µg/mL).
With potassium bixinate [KBx] the “HDAC6 expression (HDAC6/β-actin)” value (HDAC6) was “effective in reducing it”, the “ROS production induced by LPS” value (RAW 264.7 cells) was “dose-dependent reduction in ROS production” and the “potency to intercept ROS formation relative to bixin” value (RAW 264.7 cells; in vitro, KBx versus bixin) was “three-fold more potency”.
